Kd data for twelve compounds are collected here from US20250064941A1, “SIGLEC LIGANDS, CONJUGATES, AND METHODS OF USE THEREOF” (Osprey Biopharmaceuticals, Inc., priority 2023, published 2025).

pKd: −log10 of the molar value.

For assay [1], the target named is T1, mouse Siglec-2-Fc-Avi (CD22) (Mus musculus, UniProt P35329).
T1 construct: made in house
T1 sequence (P35329 22-708 limits assumed): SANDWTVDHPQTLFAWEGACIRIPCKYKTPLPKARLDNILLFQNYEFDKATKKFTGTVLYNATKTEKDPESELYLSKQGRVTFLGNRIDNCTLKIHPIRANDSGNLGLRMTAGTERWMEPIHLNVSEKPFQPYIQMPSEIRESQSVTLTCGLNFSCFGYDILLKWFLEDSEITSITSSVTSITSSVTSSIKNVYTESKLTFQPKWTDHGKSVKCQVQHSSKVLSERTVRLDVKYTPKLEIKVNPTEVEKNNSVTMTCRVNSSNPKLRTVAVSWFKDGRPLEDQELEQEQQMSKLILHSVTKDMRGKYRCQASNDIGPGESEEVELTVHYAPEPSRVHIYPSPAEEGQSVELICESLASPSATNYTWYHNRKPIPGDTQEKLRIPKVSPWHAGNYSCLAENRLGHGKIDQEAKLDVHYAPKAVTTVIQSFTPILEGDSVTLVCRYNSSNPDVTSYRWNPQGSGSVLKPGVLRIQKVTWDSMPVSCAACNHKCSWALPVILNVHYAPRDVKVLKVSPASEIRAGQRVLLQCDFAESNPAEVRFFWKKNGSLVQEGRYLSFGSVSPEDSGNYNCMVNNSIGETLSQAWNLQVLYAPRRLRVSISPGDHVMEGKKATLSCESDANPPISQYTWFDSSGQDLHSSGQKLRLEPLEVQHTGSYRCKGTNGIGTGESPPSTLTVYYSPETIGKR
Put plainly: SPR binding affinity to mouse CD22. The following applies: steady-state analysis. The method, boiled down:
(§1)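 Biotinylated CD22 desialylated with SialoExo (4 h, 37° C) before capture on streptavidin chip. Running buffer 10 mM HEPES, 150 mM NaCl, 0.05% Tween-20, pH 7.5, 1% DMSO, with DMSO solvent correction; 120 s dissociation. Compound affinities from steady-state analysis.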
In general terms: SPR reads the build-up and loss of mass on a sensor chip optically.

For assay [2], the target named is T2, human Siglec-2/CD22 protein (Homo sapiens, UniProt P20273).
T2 construct: purchased Acro Biosystems SI2-H82E3
T2 sequence (P20273 20-847): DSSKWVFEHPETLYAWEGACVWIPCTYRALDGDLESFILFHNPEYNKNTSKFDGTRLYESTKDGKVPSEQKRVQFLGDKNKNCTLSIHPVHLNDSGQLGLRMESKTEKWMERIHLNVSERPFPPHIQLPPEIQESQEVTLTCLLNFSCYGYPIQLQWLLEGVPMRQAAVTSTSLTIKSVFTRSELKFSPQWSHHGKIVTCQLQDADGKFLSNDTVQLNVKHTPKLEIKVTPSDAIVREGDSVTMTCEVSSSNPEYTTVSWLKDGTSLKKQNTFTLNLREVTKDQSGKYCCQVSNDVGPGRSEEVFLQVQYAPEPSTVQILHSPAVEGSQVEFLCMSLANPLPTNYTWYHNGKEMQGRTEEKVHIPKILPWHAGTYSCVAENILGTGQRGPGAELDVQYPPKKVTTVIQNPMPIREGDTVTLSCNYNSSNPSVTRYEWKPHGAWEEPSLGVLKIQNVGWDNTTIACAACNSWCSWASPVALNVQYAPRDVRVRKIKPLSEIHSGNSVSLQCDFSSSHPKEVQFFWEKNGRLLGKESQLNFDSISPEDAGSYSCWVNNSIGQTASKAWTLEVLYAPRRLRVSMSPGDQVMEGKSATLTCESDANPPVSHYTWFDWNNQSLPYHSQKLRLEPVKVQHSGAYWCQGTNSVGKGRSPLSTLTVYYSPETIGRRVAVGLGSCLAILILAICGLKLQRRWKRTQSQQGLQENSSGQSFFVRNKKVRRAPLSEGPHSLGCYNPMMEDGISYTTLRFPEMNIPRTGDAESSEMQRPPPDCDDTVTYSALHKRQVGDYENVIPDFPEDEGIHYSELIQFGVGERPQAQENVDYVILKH
Put plainly: SPR binding affinity to human CD22. The following applies: steady-state analysis. The method, boiled down:
as §1

For another assay, the target named is cynomolgus Siglec-2/CD22 (Macaca fascicularis, UniProt A0A2K5WCZ6). As to the kind of experiment: biochemical. In kind it is binding. As to conditions: SPR, steady-state analysis; read-out: Affinity cyno CD22. The method, boiled down: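 Compound binding measured by steady-state SPR analysis, 120 s dissociation, in HEPES-NaCl-Tween buffer pH 7.5 containing 1% DMSO, DMSO solvent-corrected. Surface: cyno CD22, sialic acids first stripped by SialoExo for 4 h at 37° C., then amine-coupled onto CM5.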
cynomolgus Siglec-2/CD22, sequence (A0A2K5WCZ6 entry or part of it): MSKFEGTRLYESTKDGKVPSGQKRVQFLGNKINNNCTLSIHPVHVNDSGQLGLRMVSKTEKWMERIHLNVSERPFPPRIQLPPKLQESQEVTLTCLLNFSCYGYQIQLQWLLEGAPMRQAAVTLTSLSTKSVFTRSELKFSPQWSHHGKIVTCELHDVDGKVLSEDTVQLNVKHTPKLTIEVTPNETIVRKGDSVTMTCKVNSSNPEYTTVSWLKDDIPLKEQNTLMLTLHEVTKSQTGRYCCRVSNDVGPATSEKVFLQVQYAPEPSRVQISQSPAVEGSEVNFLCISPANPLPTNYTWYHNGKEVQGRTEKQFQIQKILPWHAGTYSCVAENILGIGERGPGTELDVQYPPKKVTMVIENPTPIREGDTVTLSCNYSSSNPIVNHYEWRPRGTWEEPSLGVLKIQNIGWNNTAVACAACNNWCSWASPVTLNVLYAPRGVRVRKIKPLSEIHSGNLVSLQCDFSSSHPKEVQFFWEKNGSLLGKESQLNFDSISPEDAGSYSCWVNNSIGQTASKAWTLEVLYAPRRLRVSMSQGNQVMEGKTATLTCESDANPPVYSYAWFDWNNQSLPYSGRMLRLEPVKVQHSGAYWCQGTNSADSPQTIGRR

On to `C#CCOc1ccc(CO[C@]2(C(=O)O)C[C@H](O)[C@@H](NC(=O)CO)[C@H]([C@H](O)[C@H](O)CNC(=O)Cc3ccc(F)cc3)O2)cc1` [Compound 166, (2R,4S,5R,6R)-6-((1R,2R)-3-(2-(4-fluorophenyl)acetamido)-1,2-dihydroxypropyl)-4-hydroxy-5-(2-hydroxyacetamido)-2-((4-(prop-2-yn-1-yloxy)benzyl)oxy)tetrahydro-2H-pyran-2-carboxylic acid], for which the pKd in assay [1] is 5.00 to 6.00; in assay [2], above 6.00; at cynomolgus Siglec-2/CD22 it was 5.00 to 6.00.

In the case of `CC(=O)NCCOCCOCCOCCOCCNc1c(NCCCCCCO[C@]2(C(=O)O)C[C@H](O)[C@@H](NC(C)=O)[C@H]([C@H](O)[C@H](O)CNC(=O)c3cccc(Cl)c3)O2)c(=O)c1=O` [Compound 273, (2R,4S,5R,6R)-5-acetamido-6-((1R,2R)-3-(3-chlorobenzamido)-1,2-dihydroxypropyl)-2-((6-((3,4-dioxo-2-((2-oxo-6,9,12,15-tetraoxa-3-azaheptadecan-17-yl)amino)cyclobut-1-en-1-yl)amino)hexyl)oxy)-4-hydroxytetrahydro-2H-pyran-2-carboxylic acid], the pKd is below 5.00 in assay [1], 5.00 to 6.00 in assay [2] and 5.00 to 6.00 at cynomolgus Siglec-2/CD22.

With `O=C(O)CCCCCO[C@]1(C(=O)O)C[C@H](O)[C@@H](NC(=O)CO)[C@H]([C@H](O)[C@H](O)CNC(=O)Cc2ccc(Cl)cc2)O1` [Compound 121, (2R,4S,5R,6R)-2-((5-carboxypentyl)oxy)-6-((1R,2R)-3-(2-(4-chlorophenyl)acetamido)-1,2-dihydroxypropyl)-4-hydroxy-5-(2-hydroxyacetamido)tetrahydro-2H-pyran-2-carboxylic acid], the pKd was 5.00 to 6.00 in assay [1], above 6.00 in assay [2] and above 6.00 at cynomolgus Siglec-2/CD22.

In the case of `C#CCOc1ccc(CO[C@]2(C(=O)O)C[C@H](O)[C@@H](NC(=O)CO)[C@H]([C@H](O)[C@H](O)CNC(=O)Cc3cccc(O)c3)O2)cc1` [Compound 150, (2R,4S,5R,6R)-6-((1R,2R)-1,2-dihydroxy-3-(2-(3-hydroxyphenyl)acetamido)propyl)-4-hydroxy-5-(2-hydroxyacetamido)-2-((4-(prop-2-yn-1-yloxy)benzyl)oxy)tetrahydro-2H-pyran-2-carboxylic acid], the pKd in assay [1] is 5.00 to 6.00; in assay [2], above 6.00; at cynomolgus Siglec-2/CD22, 5.00 to 6.00.

For `C#CCOCCCCCCO[C@]1(C(=O)O)C[C@H](O)[C@@H](NC(=S)NC)[C@H]([C@H](O)[C@H](O)CNC(=O)Cc2ccc(Cl)cc2)O1` [Compound 84, (2R,4S,5R,6R)-6-((1R,2R)-3-(2-(4-chlorophenyl)acetamido)-1,2-dihydroxypropyl)-4-hydroxy-5-(3-methylthioureido)-2-((6-(prop-2-yn-1-yloxy)hexyl)oxy)tetrahydro-2H-pyran-2-carboxylic acid], the pKd in assay [1] was 5.00 to 6.00; in assay [2], above 6.00; at cynomolgus Siglec-2/CD22, 5.00 to 6.00.

Turning to `NCC(O)CO[C@]1(C(=O)O)C[C@H](O)[C@@H](NC(=O)CO)[C@H]([C@H](O)[C@H](O)CNC(=O)Cc2ccc(Cl)cc2)O1` (stereo partly drawn) [Compound 104, (2R,4S,5R,6R)-2-(3-amino-2-hydroxypropoxy)-6-((1R,2R)-3-(2-(4-chlorophenyl)acetamido)-1,2-dihydroxypropyl)-4-hydroxy-5-(2-hydroxyacetamido)tetrahydro-2H-pyran-2-carboxylic acid], the pKd (in assay [1]; in assay [2]; on cynomolgus Siglec-2/CD22) was below 5.00 each time.

For the compound `C#CCOCCOCCO[C@]1(C(=O)O)C[C@H](O)[C@@H](NC(=O)CO)[C@H]([C@H](O)[C@H](O)CNC(=O)c2cccc(O)c2)O1` [Compound 29, (2R,4S,5R,6R)-6-((1R,2R)-1,2-dihydroxy-3-(3-hydroxybenzamido)propyl)-4-hydroxy-5-(2-hydroxyacetamido)-2-(2-(2-(prop-2-yn-1-yloxy)ethoxy)ethoxy)tetrahydro-2H-pyran-2-carboxylic acid], the pKd in assay [1] was below 5.00; in assay [2], 5.00 to 6.00; on cynomolgus Siglec-2/CD22, below 5.00.

Take `C#CCOCCOCCO[C@]1(C(=O)O)C[C@H](O)[C@@H](NC(=O)CO)[C@H]([C@H](O)[C@H](O)CNC(=O)Cc2ccc(-c3cccnc3)cc2)O1` [Compound 82, (2R,4S,5R,6R)-6-((1R,2R)-1,2-dihydroxy-3-(2-(4-(pyridin-3-yl)phenyl)acetamido)propyl)-4-hydroxy-5-(2-hydroxyacetamido)-2-(2-(2-(prop-2-yn-1-yloxy)ethoxy)ethoxy)tetrahydro-2H-pyran-2-carboxylic acid]: the figures for the pKd (in assay [1]; in assay [2]; on cynomolgus Siglec-2/CD22) were below 5.00, 5.00 to 6.00 and below 5.00, respectively.

With `C#CCCOc1ccc(CO[C@]2(C(=O)O)C[C@H](O)[C@@H](NC(=O)CO)[C@H]([C@H](O)[C@H](O)CNC(=O)Cc3cccc(NC(C)=O)c3)O2)cc1` [Compound 164, (2R,4S,5R,6R)-6-((1R,2R)-3-(2-(3-acetamidophenyl)acetamido)-1,2-dihydroxypropyl)-2-((4-(but-3-yn-1-yloxy)benzyl)oxy)-4-hydroxy-5-(2-hydroxyacetamido)tetrahydro-2H-pyran-2-carboxylic acid], the pKd (in assay [1]; in assay [2]; at cynomolgus Siglec-2/CD22) was 5.00 to 6.00 throughout.

For `C#CCOCCCCCCO[C@]1(C(=O)O)C[C@H](O)[C@@H](NC(=O)CO)[C@H]([C@H](O)[C@H](O)CNC(=O)Cc2ccc(C3CC3)cc2)O1` [Compound 161, (2R,4S,5R,6R)-6-((1R,2R)-3-(2-(4-cyclopropylphenyl)acetamido)-1,2-dihydroxypropyl)-4-hydroxy-5-(2-hydroxyacetamido)-2-((6-(prop-2-yn-1-yloxy)hexyl)oxy)tetrahydro-2H-pyran-2-carboxylic acid], the pKd (in assay [1]; in assay [2]; on cynomolgus Siglec-2/CD22) was above 6.00 in each case.

For the compound `CC(=O)NCCOCCOCCOCCOCCC(=O)NCCCCCCO[C@]1(C(=O)O)C[C@H](O)[C@@H](NC(=O)CO)[C@H]([C@H](O)[C@H](O)CNC(=O)Cc2ccc(-c3ccccc3)cc2)O1` [Compound 219, (2R,4S,5R,6R)-6-((1R,2R)-3-(2-([1,1′-biphenyl]-4-yl)acetamido)-1,2-dihydroxypropyl)-2-((2,18-dioxo-6,9,12,15-tetraoxa-3,19-diazapentacosan-25-yl)oxy)-4-hydroxy-5-(2-hydroxyacetamido)tetrahydro-2H-pyran-2-carboxylic acid], the pKd (in assay [1]; in assay [2]; at cynomolgus Siglec-2/CD22) was above 6.00 each time.

In the case of `C#CCCOc1ccc(CO[C@]2(C(=O)O)C[C@H](O)[C@@H](NC(=O)CO)[C@H]([C@H](O)[C@H](O)CNC(=O)Cc3ccc4cn[nH]c4c3)O2)cc1` [Compound 10, (2R,4S,5R,6R)-6-((1R,2R)-3-(2-(1H-indazol-6-yl)acetamido)-1,2-dihydroxypropyl)-2-((4-(but-3-yn-1-yloxy)benzyl)oxy)-4-hydroxy-5-(2-hydroxyacetamido)tetrahydro-2H-pyran-2-carboxylic acid], the pKd (in assay [1]; in assay [2]; at cynomolgus Siglec-2/CD22) was 5.00 to 6.00 each time.
